Assay results reported in patent US20240082296A1, “TREATMENT OF MUSCLE ATROPHY USING DEXTRAN SULFATE” (TX MEDIC AB, priority 2020, published 2024).
Marks after values point to notes of the source that are not given here.

System: severe traumatic brain injury (sTBI) in rats
Assay: HPLC of purine-pyrimidine / energy metabolites in rat brain after sTBI (Example 4)
Type: in vivo
Procedure: The effects of daily sub-cutaneous injections of dextran sulfate on glutamate excitotoxicity and mitochondrial function after severe traumatic brain injury (sTBI) in rats were evaluated by high-performance liquid chromatography (HPLC) analysis of frozen brain samples.
The experimental protocol used in this study was approved by the Ethical Committee of the Catholic University of Rome, according to international standards and guidelines for animal care. Male Wistar rats of 300-350 g body weight (b.w.) were fed with standard laboratory diet and water ad libitum in a controlled environment.
They were divided into three groups: • 1) n=6 animals subjected to sTBI, with drug administration after 30 minutes and sacrifice at 2 days post-TBI (Acute phase 1) • 2) n=6 animals subjected to severe-TBI, with drug administration after 30 minutes and sacrifice at 7 days post-TBI (Acute phase 2). • 3) n=6 animals subjected to severe-TBI, with drug administration after 3 days and sacrifice at 7 days post-TBI (Chronic phase).
As the anesthetic mixture, animals received 35 mg/kg b.w. ketamine and 0.25 mg/kg b.w. midazolam by i.p. injection. sTBI was induced by dropping a 450 g weight from 2 m height on to the rat head that had been protected by a metal disk previously fixed on the skull, according to the “weight drop” impact acceleration model (Marmarou et al., A new model of diffuse brain injury in rats. Part I: Pathophysiology and biomechanics. J Neurosurg. 1994; 80: 291-300). […] At the end of each period of treatment, rats were anesthetized again and then immediately sacrificed.
The drug treatment was a subcutaneous injection of 0.5 ml of dextran sulfate (Tikomed AB, Viken, Sweden, WO 2016/076780; 15 mg/kg) and administered according to the aforementioned schematic protocol.
An in vivo craniectomy was performed in all animals during anesthesia, after carefully removing the rat's skull, the brain was exposed and removed with a surgical spatula and quickly dropped in liquid nitrogen. After the wet weight (w.w.) determination, tissue preparation was affected as previously disclosed (Tavazzi et al., Cerebral oxidative stress and depression of energy metabolism correlate with severity of diffuse brain injury in rats. Neurosurgery. 2005; 56: 582-589; Vagnozzi et al., Temporal window of metabolic brain vulnerability to concussions: mitochondrial-related impairment-part I. Neurosurgery. 2007; 61: 379-388; Tavazzi et al., Temporal window of metabolic brain vulnerability to concussions: oxidative and nitrosative stresses-part II. Neurosurgery. 2007; 61: 390-395; Amorini et al., Severity of experimental traumatic brain injury modulates changes in concentrations of cerebral free amino acids. J Cell Mol Med. 2017; 21: 530-542.). Briefly, whole brain homogenization was performed with 7 ml of ice-cold, nitrogen-saturated, precipitating solution composed by CH3CN+10 mM KH2PO4, pH 7.40, (3:1; v:v), and using an Ultra-Turrax set at 24,000 rpm/min (Janke & Kunkel, Staufen, Germany). After centrifugation at 20,690×g, for 10 min at 4° C., the clear supernatants were saved, pellets were supplemented with 3 ml of the precipitating solution and homogenized again as described above. A second centrifugation was performed (20,690×g, for 10 min at 4° C.), pellets were saved, supernatants combined with those previously obtained, extracted by vigorous agitation with a double volume of HPLC-grade CHCl3 and centrifuged as above. The upper aqueous phases containing water-soluble low-molecular weight compounds were collected, subjected to chloroform washings for two more times (this procedure allowed the removal of all the organic solvent and of any lipid soluble compound from the buffered tissue extracts), adjusted in volumes with 10 mM KH2PO4, pH 7.40, to have ultimately aqueous 10% tissue homogenates and saved at −80° C. until assayed. […]

[1] = Acute phase 1 (15 mg/kg s.c. 30 min after sTBI, sacrifice 2 days post-TBI)
[2] = Acute phase 2 (15 mg/kg s.c. 30 min after sTBI, sacrifice 7 days post-TBI)

For dextran sulfate, the ADO concentration [1] was 71.67 ± 15.87 nmol/g (w.w.), the ADP concentration [1] was 279.34 ± 29.59^b nmol/g (w.w.) and the ADP-ribose concentration [1] was 137.87 ± 43.18^a nmol/g (w.w.). The AMP concentration [1] was 53.61 ± 17.91^a,c,j nmol/g (w.w.), the ATP concentration [1] was 1464.25 ± 99.09^a,h nmol/g (w.w.) and the CDP choline concentration [1] was 10.93 ± 3.22^b,h nmol/g (w.w.). For the same substance, the CDP concentration [1] was 25.53 ± 6.83^a,c nmol/g (w.w.), the CMP concentration [1] was 30.12 ± 9.97^a,h nmol/g (w.w.) and the CTP concentration [1] was 18.98 ± 6.58^a,g nmol/g (w.w.). For the same substance, the CoA-SH concentration [1] was 21.61 ± 3.42^a,h nmol/g (w.w.), the GDP concentration [1] was 158.72 ± 24.57^a nmol/g (w.w.) and the GDP glucose concentration [1] was 38.71 ± 6.86 nmol/g (w.w.). The GMP concentration [1] was 177.00 ± 32.39^a,g nmol/g (w.w.), the GSH concentration [1] was 2649.50 ± 397.31^a,d nmol/g (w.w.) and the GSSG concentration [1] was 185.21 ± 48.10 nmol/g (w.w.). The GTP concentration [1] was 255.29 ± 45.21^a,g nmol/g (w.w.), the IMP concentration [1] was 67.71 ± 10.63^g,i nmol/g (w.w.) and the MDA concentration [1] was 12.47 ± 2.09^a,c,g nmol/g (w.w.). The NAA concentration [1] was 6147.91 ± 989.12^a nmol/g (w.w.), the NADH concentration [1] was 15.49 ± 2.05^c,j nmol/g (w.w.) and the NADPH concentration [1] was 6.22 ± 1.73 nmol/g (w.w.). The “NADP^+ concentration” value [1] was 17.95 ± 3.28^a nmol/g (w.w.), the “NAD^+ concentration” value [1] was 404.63 ± 51.10^a,c,i nmol/g (w.w.) and the NO2 concentration [1] was 216.03 ± 41.74^a nmol/g (w.w.). The NO3 concentration [1] was 210.64 ± 91.95^d nmol/g (w.w.), the UDP concentration [1] was 61.83 ± 10.23^a,g nmol/g (w.w.) and the UDP-Gal concentration [1] was 119.45 ± 12.50 nmol/g (w.w.). For the same substance, the UDP-GalNac concentration [1] was 19.17 ± 4.01^a nmol/g (w.w.), the UDP-Glc concentration [1] was 32.14 ± 4.59^g nmol/g (w.w.) and the UDP-GlcNac concentration [1] was 95.85 ± 19.73^h,i nmol/g (w.w.). The UMP concentration [1] was 107.80 ± 21.62 nmol/g (w.w.), the UTP concentration [1] was 123.46 ± 15.42^d nmol/g (w.w.) and the acetyl-CoA concentration [1] was 21.56 ± 6.22^a,g,i nmol/g (w.w.). For the same substance, the adenine concentration [1] was 44.82 ± 6.31^a,d,g nmol/g (w.w.), the ascorbic acid concentration [1] was 3733.10 ± 277.88^a,d nmol/g (w.w.) and the creatinine concentration [1] was 24.55 ± 3.20^b,g,i nmol/g (w.w.). The cytidine concentration [1] was 15.40 ± 3.04 nmol/g (w.w.), the cytosine concentration [1] was 17.69 ± 2.50^b,d nmol/g (w.w.) and the guanine concentration [1] was 4.80 ± 1.24^b nmol/g (w.w.). For the same substance, the guanosine concentration [1] was 20.71 ± 5.66 nmol/g (w.w.), the hypoxanthine concentration [1] was 14.47 ± 2.87^a nmol/g (w.w.) and the inosine concentration [1] was 92.55 ± 31.20^c nmol/g (w.w.). The malonyl-CoA concentration [1] was 12.33 ± 1.82^b nmol/g (w.w.), the orotic acid concentration [1] was 8.80 ± 2.45^b,h,j nmol/g (w.w.) and the thymidine concentration [1] was 0.69 ± 0.11 nmol/g (w.w.). The uracil concentration [1] was 14.56 ± 5.44 nmol/g (w.w.), the uric acid concentration [1] was 23.62 ± 3.77^a,d,h nmol/g (w.w.) and the uridine concentration [1] was 76.35 ± 12.85^a,c nmol/g (w.w.). For the same substance, the xanthine concentration [1] was 9.46 ± 2.34^d nmol/g (w.w.), the β-pseudouridine concentration [1] was 6.65 ± 1.30^g,i nmol/g (w.w.) and the ADO concentration [2] was 82.11 ± 16.51^a nmol/g (w.w.). For the same substance, the ADP concentration [2] was 264.07 ± 28.29^b,e,j nmol/g (w.w.), the ADP-ribose concentration [2] was 141.96 ± 23.56^a,e,j nmol/g (w.w.) and the AMP concentration [2] was 57.70 ± 23.01^a,e,j nmol/g (w.w.). The ATP concentration [2] was 1632.23 ± 90.07^a,e,j nmol/g (w.w.), the CDP choline concentration [2] was 6.91 ± 1.86 nmol/g (w.w.) and the CDP concentration [2] was 24.29 ± 6.76^a nmol/g (w.w.). The CMP concentration [2] was 15.68 ± 2.12^f,j nmol/g (w.w.), the CTP concentration [2] was 32.63 ± 3.99^e,i nmol/g (w.w.) and the CoA-SH concentration [2] was 30.57 ± 6.02^f nmol/g (w.w.). For the same substance, the GDP concentration [2] was 126.70 ± 31.35^a,j nmol/g (w.w.), the GDP glucose concentration [2] was 49.25 ± 10.33^a nmol/g (w.w.) and the GMP concentration [2] was 91.47 ± 12.35^e,i nmol/g (w.w.). The GSH concentration [2] was 2821.50 ± 242.82^a,e nmol/g (w.w.), the GSSG concentration [2] was 219.54 ± 53.36 nmol/g (w.w.) and the GTP concentration [2] was 336.65 ± 35.18^a,e,j nmol/g (w.w.). For the same substance, the IMP concentration [2] was 102.63 ± 22.09^a nmol/g (w.w.), the MDA concentration [2] was 4.82 ± 1.73^a,e,i nmol/g (w.w.) and the NAA concentration [2] was 7262.84 ± 749.73^a,e nmol/g (w.w.). For the same substance, the NADH concentration [2] was 13.12 ± 4.19^e nmol/g (w.w.), the NADPH concentration [2] was 7.05 ± 2.21 nmol/g (w.w.) and the “NADP^+ concentration” value [2] was 21.27 ± 4.19^b,e,j nmol/g (w.w.). The “NAD^+ concentration” value [2] was 401.18 ± 34.53^a,e,i nmol/g (w.w.), the NO2 concentration [2] was 226.40 ± 30.95^b nmol/g (w.w.) and the NO3 concentration [2] was 198.56 ± 25.93^e,i nmol/g (w.w.). For the same substance, the UDP concentration [2] was 40.38 ± 8.50^a,i nmol/g (w.w.) and the UDP-Gal concentration [2] was 145.14 ± 27.76 nmol/g (w.w.).
